Bridge positions count the residues as written; N and C are the ends. Square brackets hold non-standard residues; d marks the D form. Peptide text beside a SMILES is read from it. Ala(3-Me-diazirin-3-yl) = CC1(C[C@H](N)C(=O)O)N=N1; R8 = C=CCCCCCC[C@@](C)(N)C(=O)O; S5 = C=CCCC[C@](C)(N)C(=O)O; Nle = CCCC[C@H](N)C(=O)O
Biological target: T1, flag-tagged HIF1α (AA 786-826) / His6-tagged p300 (AA 323-423) complex (Homo sapiens, UniProt Q09472)
T1 construct: His6-tagged p300 (AA 323-423); made in house; host or cells: E. coli (pETDuet vector)
Assay: HIF1α p300 displacement assay (TR FRET, +CHAPS)
Type: binding
Conditions: read-out: IC50 (nM) (HIF1α_p300 Displacement + CHAPS)
Method: The ability of peptides to displace HIF1α c-terminal trans-activation domain from p300-CH was measured by a TR FRET assay. A complex of flag-tagged HIF1α (AA 786-826) and His6-tagged p300 (AA 323-423) was co-expressed using pETDuet vector (EMDMillipore, Bellrica Mass.) and purified from E. coli in the presence of 0.1 mM ZnSO4. The complex was diluted to 300 nM final in complete assay media and competitor peptides were added. The complete assay media contained 150 mM NaCl (Sigma +S5150 or equivalent), 20 mM HEPES pH 7.4 (Boston Bioproducts, Ashland, Mass.; #BB-2076), 7.5 mM CHAPS (Thermo #28300 or equivalent), and 1 mM DTT. Protein and peptide were incubated at room temperature for 1 hour before the addition of anti-Flag-K and anti-6×HIS-D2 (CisBio, Bedford Mass.) HTRF reconstitution buffer (50 mM Phosphate pH 7, 0.8 Potassium Flouride, BSA 0.2%)^1 to a final concentration of 0.5 μM and 4 nM respectively. The reaction continued for an additional two hours at room temperature. The reaction was read on a TECAN F500 plate reader with settings recommended by CisBio. The ratio of donor to acceptor fluorescence was calculated. The resulting data was analyzed with Graphpad Prism 5.0. IC50 values were calculated for both proteins using the One Site Fit-LogIC50 equation and presented in the column “IC50 (nM) (HIF1α_p300 Displacement+CHAPS)” of Table 6. ^1 Cisbio USA, Bedford, Mass.; 61HISDLB (lot 007A), 61FG2KLB (024A), HTRF Buffer (62RB3RDF)

Row | IC50 [nM] | Molecule
1 | > 700 | CCCC[C@@H]1NC(=O)[C@H](CC(C)C)NC(=O)[C@](C)(NC(=O)[C@H](CCC(=O)O)NC(=O)[C@H](CCC(=O)O)NC(=O)[C@H](CC(=O)O)NC(=O)[C@@H](NC(=O)[C@H](CC(N)=O)NC(=O)[C@@H](NC(=O)[C@H](CCC(N)=O)NC(=O)[C@]2(C)CCCC=CCCC[C@](C)(NC(=O)[C@H](CC(C)C)NC(=O)[C@H](CCC(=O)O)NC(=O)[C@H](CCC(=O)O)NC(=O)CNC(=O)[C@H](CCC(N)=O)NC(=O)[C@H](CC(C)C)NC(=O)[C@H](CC(C)C)NC(C)=O)C(=O)N[C@@H](CCCNC(=N)N)C(=O)N[C@@H](C)C(=O)N[C@@H](CC(C)C)C(=O)N2)C(C)C)[C@@H](C)CC)CCCCCCC=CCCC[C@@](C)(C(=O)N[C@@H](CCCC)C(=O)NCC(N)=O)NC(=O)[C@H]([C@@H](C)CC)NC(=O)[C@H](C(C)C)NC(=O)[C@H](CC(C)C)NC(=O)[C@H](CO)NC1=O [SP-331] (Ac-LLQGEEL[S5]RAL[S5]QVNIDEE[R8]L[Nle]SLVI[S5][Nle]G-NH2; staple 8-12, 20-27)
2 | 400 to 700 | CCCC[C@H](NC(=O)[C@H](CCC(=O)O)NC(=O)[C@@H](NC(=O)[C@@H](NC(=O)[C@H](CC(C)C)NC(=O)[C@H](CO)NC(=O)[C@H](CCCC)NC(=O)[C@H](CC(C)C)NC(=O)[C@@H](NC(=O)[C@H](CCC(=O)O)NC(=O)[C@H](CCC(=O)O)NC(=O)[C@H](CC(=O)O)NC(=O)[C@@H](NC(=O)[C@H](CC(N)=O)NC(=O)[C@@H](NC(=O)[C@H](CCC(N)=O)NC(=O)[C@H](CC(=O)O)NC(=O)[C@H](CC(C)C)NC(=O)[C@H](C)NC(=O)[C@H](CCCNC(=N)N)NC(=O)[C@H](CC(C)C)NC(=O)[C@H](CC(C)C)NC(=O)[C@H](CCC(=O)O)NC(=O)[C@H](CCC(=O)O)NC(=O)CNC(=O)[C@H](CCC(N)=O)NC(=O)[C@H](CC(C)C)NC(=O)[C@H](CC(C)C)NC(C)=O)C(C)C)[C@@H](C)CC)C(C)C)C(C)C)[C@@H](C)CC)C(N)=O [SP-333] (Ac-LLQGEELLRALDQVNIDEEVL[Nle]SLVIE[Nle]-NH2)
3 | > 700 | CCCC[C@H](NC(=O)[C@H](CC(C)C)NC(=O)[C@@H](NC(=O)[C@H](CCC(=O)O)NC(=O)[C@H](CCC(=O)O)NC(=O)[C@H](CC(=O)O)NC(=O)[C@@H](NC(=O)[C@H](CC(N)=O)NC(=O)[C@@H](NC(=O)[C@H](CCC(N)=O)NC(=O)[C@H](CC(=O)O)NC(=O)[C@H](CC(C)C)NC(=O)[C@H](C)NC(=O)[C@H](CCCNC(=N)N)NC(=O)[C@]1(C)CCCC=CCCC[C@](C)(NC(=O)[C@H](CCC(N)=O)NC(=O)[C@H](CC(C)C)NC(=O)[C@H](CC(C)C)NC(C)=O)C(=O)N[C@@H](CCC(=O)O)C(=O)N[C@@H](CCC(=O)O)C(=O)N[C@@H](CC(C)C)C(=O)N1)C(C)C)[C@@H](C)CC)C(C)C)C(=O)N[C@@]1(C)CCCC=CCCC[C@@](C)(C(=O)N[C@@H](CCCC)C(=O)N[C@@H](C)C(=O)N[C@@H](CC(C)C)C(N)=O)NC(=O)[C@H]([C@@H](C)CC)NC(=O)[C@H](C(C)C)NC(=O)[C@H](CC(C)C)NC1=O [SP-370] (Ac-LLQ[S5]EEL[S5]RALDQVNIDEEVL[Nle][S5]LVI[S5][Nle]AL-NH2; staple 4-8, 23-27)
4 | > 700 | CCCC[C@@H]1NC(=O)[C@H](CC(C)C)NC(=O)[C@](C)(NC(=O)[C@H](CCC(=O)O)NC(=O)[C@H](CCC(=O)O)NC(=O)[C@H](CC(=O)O)NC(=O)[C@@H](NC(=O)[C@H](CC(N)=O)NC(=O)[C@@H](NC(=O)[C@H](CCC(N)=O)NC(=O)[C@H](CC(=O)O)NC(=O)[C@H](CC(C)C)NC(=O)[C@H](C)NC(=O)[C@H](CCCNC(=N)N)NC(=O)[C@]2(C)CCCC=CCCC[C@](C)(NC(=O)[C@H](CCC(N)=O)NC(=O)[C@H](CC(C)C)NC(=O)[C@H](CC(C)C)NC(C)=O)C(=O)N[C@@H](CCC(=O)O)C(=O)N[C@@H](CCC(=O)O)C(=O)N[C@@H](CC(C)C)C(=O)N2)C(C)C)[C@@H](C)CC)CCCCCCC=CCCC[C@@](C)(C(=O)N[C@@H](CCCC)C(=O)NCC(N)=O)NC(=O)[C@H]([C@@H](C)CC)NC(=O)[C@H](C(C)C)NC(=O)[C@H](CC(C)C)NC(=O)[C@H](CO)NC1=O [SP-329] (Ac-LLQ[S5]EEL[S5]RALDQVNIDEE[R8]L[Nle]SLVI[S5][Nle]G-NH2; staple 4-8, 20-27)
5 | > 700 | CCCC[C@H](NC(=O)[C@H](CCC(=O)O)NC(=O)[C@@H](NC(=O)[C@]1(C)CCCC=CCCC[C@](C)(NC(=O)[C@@H](NC(=O)[C@H](CCC(=O)O)NC(=O)[C@H](CCC(=O)O)NC(=O)[C@H](CC(=O)O)NC(=O)[C@@H](NC(=O)[C@H](CC(N)=O)NC(=O)[C@@H](NC(=O)[C@H](CCC(N)=O)NC(=O)[C@]2(C)CCCC=CCCC[C@](C)(NC(=O)[C@H](CC(C)C)NC(=O)[C@H](CCC(=O)O)NC(=O)[C@H](CCC(=O)O)NC(=O)CNC(=O)[C@H](CCC(N)=O)NC(=O)[C@H](CC(C)C)NC(=O)[C@H](CC(C)C)NC(C)=O)C(=O)N[C@@H](CCCNC(=N)N)C(=O)N[C@@H](C)C(=O)N[C@@H](CC(C)C)C(=O)N2)C(C)C)[C@@H](C)CC)C(C)C)C(=O)N[C@@H](CCCC)C(=O)N[C@@H](CO)C(=O)N[C@@H](CC(C)C)C(=O)N1)[C@@H](C)CC)C(=O)NCC(N)=O [SP-304] (Ac-LLQGEEL[S5]RAL[S5]QVNIDEEV[S5][Nle]SL[S5]IE[Nle]G-NH2; staple 8-12, 21-25)
6 | > 700 | CCCC[C@@H]1NC(=O)[C@](C)(NC(=O)[C@@H](NC(=O)[C@H](CCC(=O)O)NC(=O)[C@H](CCC(=O)O)NC(=O)[C@H](CC(=O)O)NC(=O)[C@@H](NC(=O)[C@H](CC(N)=O)NC(=O)[C@@H](NC(=O)[C@H](CCC(N)=O)NC(=O)[C@H](CC(=O)O)NC(=O)[C@H](CC(C)C)NC(=O)[C@]2(C)CCCC=CCCC[C@](C)(NC(=O)[C@H](CCC(=O)O)NC(=O)CNC(=O)[C@H](CCC(N)=O)NC(=O)[C@H](CC(C)C)NC(=O)[C@H](CC(C)C)NC(C)=O)C(=O)N[C@@H](CC(C)C)C(=O)N[C@@H](CC(C)C)C(=O)N[C@@H](CCCNC(=N)N)C(=O)N2)C(C)C)[C@@H](C)CC)C(C)C)CCCCCCC=CCCC[C@@](C)(C(=O)NCC(N)=O)NC(=O)[C@H](CCC(=O)O)NC(=O)[C@H]([C@@H](C)CC)NC(=O)[C@H](C(C)C)NC(=O)[C@H](CC(C)C)NC(=O)[C@H](CO)NC1=O [SP-315] (Ac-LLQGE[S5]LLR[S5]LDQVNIDEEV[R8][Nle]SLVIE[S5]G-NH2; staple 6-10, 21-28)

Second part, the molecule before the results:

Row | Molecule | IC50 [nM]
7 | CCCC[C@H](NC(=O)[C@H](Cc1ccccc1)NC(=O)[C@@H](NC(=O)[C@H](CCC(=O)O)NC(=O)[C@H](CCC(=O)O)NC(=O)[C@H](CC(=O)O)NC(=O)[C@@H](NC(=O)[C@H](Cc1ccccc1)NC(C)=O)[C@@H](C)CC)C(C)C)C(=O)N[C@@]1(C)CCCC=CCCC[C@@](C)(C(=O)N[C@@H](CCCC)C(=O)N[C@@H](C)C(=O)N[C@@H](CC(C)C)C(=O)N[C@@H](CC(C)C)C(N)=O)NC(=O)[C@H]([C@@H](C)CC)NC(=O)[C@H](C(C)C)NC(=O)[C@H](CC(C)C)NC1=O [SP-242] (Ac-FIDEEVF[Nle][S5]LVI[S5][Nle]ALL-NH2; staple 9-13) | ≤ 200
8 | CCCC[C@H](NC(=O)[C@H](CCC(=O)O)NC(=O)[C@@H](NC(=O)[C@@H](NC(=O)[C@H](CC(C)C)NC(=O)[C@]1(C)CCCC=CCCC[C@](C)(NC(=O)[C@H](CCC(=O)O)NC(=O)[C@H](CC(=O)O)NC(=O)[C@@H](NC(=O)[C@H](Cc2ccccc2)NC(C)=O)[C@@H](C)CC)C(=O)N[C@@H](C(C)C)C(=O)N[C@@H](CC(C)C)C(=O)N[C@@H](CCCC)C(=O)N1)C(C)C)[C@@H](C)CC)C(=O)N[C@@H](C)C(=O)N[C@@H](CC(C)C)C(=O)N[C@@H](CCCCN)C(N)=O [SP-132] (Ac-FIDE[S5]VL[Nle][S5]LVIE[Nle]ALK-NH2; staple 5-9) | > 700
9 | CCCC[C@H](NC(=O)[C@H](CC(C)C)NC(=O)[C@@H](NC(=O)[C@H](C)NC(=O)[C@H](CCC(=O)O)NC(=O)[C@H](C)NC(=O)[C@@H](NC(=O)[C@H](Cc1ccccc1)NC(C)=O)[C@@H](C)CC)C(C)C)C(=O)N[C@@]1(C)CCCC=CCCC[C@@](C)(C(=O)N[C@@H](CCCC)C(=O)N[C@@H](C)C(=O)N[C@@H](CC(C)C)C(=O)N[C@@H](C)C(=O)N[C@@H](C)C(=O)N[C@H](C(N)=O)[C@@H](C)CC)NC(=O)[C@H]([C@@H](C)CC)NC(=O)[C@H](C(C)C)NC(=O)[C@H](CC(C)C)NC1=O [SP-223] (Ac-FIAEAVL[Nle][S5]LVI[S5][Nle]ALAAI-NH2; staple 9-13) | > 700
10 | CC[C@H](C)[C@H](NC(=O)[C@H](Cc1ccccc1)NC(C)=O)C(=O)N[C@@H](CC(=O)O)C(=O)N[C@@H](CCC(=O)O)C(=O)N[C@]1(C)CCCCCCC=CCCC[C@@](C)(C(=O)N[C@@H](CCC(=O)O)C(=O)N[C@@H](CCSC)C(=O)N[C@@H](C)C(=O)N[C@@H](C)C(N)=O)NC(=O)[C@H](C(C)C)NC(=O)[C@H](CC(C)C)NC(=O)[C@H](CO)NC(=O)[C@H](CCSC)NC(=O)[C@H](CC(C)C)NC(=O)[C@H](C(C)C)NC1=O [SP-178] (Ac-FIDE[R8]VLMSLV[S5]EMAA-NH2; staple 5-12) | > 700
11 | SP-72 (Ac-FIDEEVL[Nle][S5]L[Ala(3-Me-diazirin-3-yl)]I[S5][Nle]ALDRI-NH2; staple 9-13) | 400 to 700
